In PubChem BioAssay AID1963836 (Molecular Pharmacology Branch, DTP, NCI, 2024):

Test system: 857933-349-R-J2-PDC complex spheroid viability
Experiment: Anticancer human tumor 857933-349-R-J2-PDC patient-derived colon adenocarcinoma cell line growth inhibition [POLQ]
Details: for IC50: curve of first compound; for viability, T/C: stronger effect = lower value
Outline: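 PDC + HUVEC + MSC complex spheroids; POLQ inhibitors ± partner drugs; top conc. at/near clinical Cmax, else 10 microM (SN-38 1 microM), half-log dilutions; 37 degrees C, 5% CO2.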
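Note: spheroids exposed to compounds for seven days before readout.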

C=CCn1c(=O)c2cnc(Nc3ccc(N4CCN(C)CC4)cc3)nc2n1-c1cccc(C(C)(C)O)n1 + Cc1cccc(N(C)C(=O)C2C(O)CCN2c2nc(C)cc(C(F)(F)F)c2C#N)c1
IC50 (second compound 0.0316 µM): > 1000 nM | IC50 (second compound 0.1 µM): > 1000 nM | IC50 (second compound 0.316 µM): > 1000 nM | IC50 (second compound 1 µM): > 1000 nM | IC50 (second compound 3.16 µM): > 1000 nM | IC50 (second compound 10 µM): > 1000 nM | viability, T/C (second compound 0.0316 µM, first compound 0.00316 µM): 103% | viability, T/C (second compound 0.0316 µM, first compound 0.01 µM): 98.2% | viability, T/C (second compound 0.0316 µM, first compound 0.0316 µM): 96.8% | viability, T/C (second compound 0.0316 µM, first compound 0.1 µM): 112% | viability, T/C (second compound 0.0316 µM, first compound 0.316 µM): 96.2% | viability, T/C (second compound 0.0316 µM, first compound 1 µM): 79.3% | viability, T/C (second compound 0.1 µM, first compound 0.00316 µM): 99.4% | viability, T/C (second compound 0.1 µM, first compound 0.01 µM): 98.9% | viability, T/C (second compound 0.1 µM, first compound 0.0316 µM): 88.2% | viability, T/C (second compound 0.1 µM, first compound 0.1 µM): 84% | viability, T/C (second compound 0.1 µM, first compound 0.316 µM): 99% | viability, T/C (second compound 0.1 µM, first compound 1 µM): 77.7% | viability, T/C (second compound 0.316 µM, first compound 0.00316 µM): 97.8% | viability, T/C (second compound 0.316 µM, first compound 0.01 µM): 97.2% | viability, T/C (second compound 0.316 µM, first compound 0.0316 µM): 114% | viability, T/C (second compound 0.316 µM, first compound 0.1 µM): 106% | viability, T/C (second compound 0.316 µM, first compound 0.316 µM): 93% | viability, T/C (second compound 0.316 µM, first compound 1 µM): 68.2% | viability, T/C (second compound 1 µM, first compound 0.00316 µM): 92.8% | viability, T/C (second compound 1 µM, first compound 0.01 µM): 91.4% | viability, T/C (second compound 1 µM, first compound 0.0316 µM): 108% | viability, T/C (second compound 1 µM, first compound 0.1 µM): 103% | viability, T/C (second compound 1 µM, first compound 0.316 µM): 117% | viability, T/C (second compound 1 µM, first compound 1 µM): 80.9% | viability, T/C (second compound 3.16 µM, first compound 0.00316 µM): 112% | viability, T/C (second compound 3.16 µM, first compound 0.01 µM): 88.9% | viability, T/C (second compound 3.16 µM, first compound 0.0316 µM): 111% | viability, T/C (second compound 3.16 µM, first compound 0.1 µM): 89% | viability, T/C (second compound 3.16 µM, first compound 0.316 µM): 94.1% | viability, T/C (second compound 3.16 µM, first compound 1 µM): 77.8% | viability, T/C (second compound 10 µM, first compound 0.00316 µM): 82.1% | viability, T/C (second compound 10 µM, first compound 0.01 µM): 111% | viability, T/C (second compound 10 µM, first compound 0.0316 µM): 104% | viability, T/C (second compound 10 µM, first compound 0.1 µM): 87% | viability, T/C (second compound 10 µM, first compound 0.316 µM): 101% | viability, T/C (second compound 10 µM, first compound 1 µM): 71%
